Results on three compounds are retold here after patent publication US9181232B2, “Difluoro-hexahydro-cyclopentaoxazinyls and difluoro-hexahydro-benzooxazinyls as BACE1 inhibitors” (Hoffmann-La Roche Inc., priority 2012, dated 2015).

One series has as its target T1, hERG channel (Homo sapiens, UniProt Q12809).
T1 construct: expressed in transfected cells; host or cells: CHO cells
Nature of the series: PatchXpress hERG inhibition assay. In kind it is cell-based. The conditions noted are these: @ 1 μM; CHO cells expressing hERG. How it is done: The detailed method to quantify hERG channel inhibition by the automated patch clamp system PatchXpress® 7000A (Molecular Devices, Sunnyvale, Calif.) has been described by Guo et al.^12 In brief, Chinese hamster ovary (CHO) cells transfected with the human ether-a-go-go-related gene (hERG) was cultured in Ex-cell 302 media supplemented with 10% fetal bovine serum, 2 mM glutamine and 0.25 mg/ml geneticin and maintained in a CO2 incubator at 37° C. For patch clamp electrophysiology, the external buffer contained (in mM): 150 NaCl, 10 Hepes, 4 KCl, 1.2 CaCl2, 1 MgCl2, pH 7.4 adjusted with […] and the internal recording solution contained (in mM): 140 KCl, 6 EGTA, 5 Hepes, MgCl2, 5 ATP-Na2, pH 7.2 adjusted with KOH. Once the cell was loaded in the recording chamber and formed a giga ohm seal with the planar glass electrodes (Sealchip™), a whole-cell configuration was achieved by rupturing the cell membrane. The membrane potential was then clamped at −80 mV and the hERG channel activated by a 1-second depolarizing pulse delivered at 0.1 Hz, the hERG current was measured during the 500 ms-repolarizing pulse to −40 mV. After an acceptable hERG current recording was obtained, the cell was first exposed to 0.3% DMSO as the vehicle control, followed by the test article in three ascending, full-log interval concentrations and finally E-4031 at 1 μM (as the positive control) to block the hERG current completely. Each test article was tested on three or more cells and at concentrations up to 30 μM or the solubility limit determined the BD Gentest™ solubility scanner. The inhibition of hERG current at each concentration was normalized to that recorded in the vehicle control, and fitted with Hill equation to calculate IC20 and/or IC50.

Series [1] has as its target T2, recombinant human cathepsin E (Homo sapiens, UniProt P14091).
T2 construct: purchased R&D Systems
T2 sequence (P14091 54-396): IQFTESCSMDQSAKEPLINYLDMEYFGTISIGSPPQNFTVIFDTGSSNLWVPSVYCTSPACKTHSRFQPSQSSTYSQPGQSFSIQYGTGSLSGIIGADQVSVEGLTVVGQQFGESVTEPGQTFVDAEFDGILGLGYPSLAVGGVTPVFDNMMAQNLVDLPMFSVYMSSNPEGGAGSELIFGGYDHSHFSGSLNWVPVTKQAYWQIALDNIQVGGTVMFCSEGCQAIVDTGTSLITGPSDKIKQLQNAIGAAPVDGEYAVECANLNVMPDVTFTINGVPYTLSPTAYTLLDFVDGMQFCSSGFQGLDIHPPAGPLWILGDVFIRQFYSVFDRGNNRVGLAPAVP
As to the kind of experiment: Cathepsin E fluorescent substrate kinetic assay. It is filed as biochemical. The conditions noted are these: pH 4.5. From the text: The MR121 fluorescence assays described below are based on the fact that MR121 forms a non-fluorescent ground state complex with tryptophan. In solution this formation occurs at millimolar concentrations of tryptophan. The mechanism can be used to design a generic biochemical assay for proteases. A substrate peptide is labeled at the N-terminus with tryptophan and at the C-terminus with the fluorophore MR121 (for cathepsin D the 10 amino acid peptide WTSVLMAAPC-MR121 was used; for cathepsin E, MR121-CKLVFFAEDW was used). In absence of protease activity, the substrates remain intact and the MR121 fluorescence is reduced by the high local Trp-concentration. If the substrates are cleaved by the enzymes the MR121 fluorescence is recovered.
The fluorescent substrate cathepsin D and cathepsin E kinetic assays were performed at room temperature in 384-well microtiter plates (black with clear flat bottom, non binding surface plates from Corning) in a final volume of 51 μl. The test compounds were serially diluted in DMSO (15 concentrations, 1/3 dilution steps) and 1 μl of diluted compounds were mixed for 10 min with 40 μl of cathepsin D (from human liver, Calbiochem) diluted in assay buffer (100 mM sodium acetate, 0.05% BSA, pH 5.5; final concentration: 200 nM) or with 40 μl of recombinant human cathepsin E (R&D Systems) diluted in assay buffer (100 mM sodium acetate, 0.05% BSA, pH 4.5; final concentration: 0.01 nM). After addition of 10 μl of the cathepsin D substrate WTSVLMAAPC-MR121 diluted in cathepsin D assay buffer (final concentration: 300 nM) or […] cathepsin E substrate MR121-CKLVFFAEDW diluted in cathepsin E assay buffer (final concentration: 300 nM), the plates were strongly shaken for 2 minutes. The enzymatic reaction was followed in a plate: vision reader (Perkin Elmer) (excitation wavelength: 630 nm; emission: 695 nm) for at least 30 minutes in a kinetic measurement detecting an increase of MR121 fluorescence during the reaction time. The slope in the linear range of the kinetic was calculated and the IC50 of the test compounds were determined using a four parameter equation for curve fitting.

The nature of series [2]: Detection of glutathione conjugates. It is filed as in vitro ADME, human. On the set-up: key: NF = in vitro no significant adduct formation relative to control. As to conditions: in vitro, relative to control. From the text:
The assay conditions for the detection of glutathione conjugates follow the procedure described by C. M. Dieckhaus et al.^13

T1 sequence (Q12809 whole entry): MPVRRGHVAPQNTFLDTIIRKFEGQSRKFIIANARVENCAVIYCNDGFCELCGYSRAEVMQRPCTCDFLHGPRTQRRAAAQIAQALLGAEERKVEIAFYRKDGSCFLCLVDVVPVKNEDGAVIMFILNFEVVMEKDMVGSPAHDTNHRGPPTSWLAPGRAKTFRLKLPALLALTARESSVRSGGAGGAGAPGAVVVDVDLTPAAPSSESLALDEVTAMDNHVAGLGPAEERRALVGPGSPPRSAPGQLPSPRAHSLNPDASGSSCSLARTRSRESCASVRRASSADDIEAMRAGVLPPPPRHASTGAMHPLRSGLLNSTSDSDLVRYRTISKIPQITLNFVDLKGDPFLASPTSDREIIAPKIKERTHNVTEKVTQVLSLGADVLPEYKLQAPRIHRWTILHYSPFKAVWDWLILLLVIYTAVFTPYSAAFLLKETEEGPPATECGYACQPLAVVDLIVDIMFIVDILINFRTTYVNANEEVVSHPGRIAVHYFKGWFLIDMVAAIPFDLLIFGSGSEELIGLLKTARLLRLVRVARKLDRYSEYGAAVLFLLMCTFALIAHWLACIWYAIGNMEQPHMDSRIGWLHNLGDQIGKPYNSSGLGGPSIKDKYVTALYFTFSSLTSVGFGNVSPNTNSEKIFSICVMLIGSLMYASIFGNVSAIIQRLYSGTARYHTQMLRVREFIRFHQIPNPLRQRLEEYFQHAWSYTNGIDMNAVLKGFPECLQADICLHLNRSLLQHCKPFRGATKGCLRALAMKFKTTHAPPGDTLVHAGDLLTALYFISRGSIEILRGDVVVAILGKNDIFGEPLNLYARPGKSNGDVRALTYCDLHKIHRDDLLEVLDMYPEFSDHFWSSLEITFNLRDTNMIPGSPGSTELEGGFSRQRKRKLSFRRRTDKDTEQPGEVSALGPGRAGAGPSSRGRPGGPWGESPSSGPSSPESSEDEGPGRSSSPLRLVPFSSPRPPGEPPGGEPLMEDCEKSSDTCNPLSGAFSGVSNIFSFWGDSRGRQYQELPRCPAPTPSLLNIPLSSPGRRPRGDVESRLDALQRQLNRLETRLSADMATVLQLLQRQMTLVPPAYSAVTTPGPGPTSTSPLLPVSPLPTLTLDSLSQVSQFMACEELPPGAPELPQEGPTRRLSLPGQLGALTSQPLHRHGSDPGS

With `CC#CCOc1cnc(C(=O)Nc2ccc(F)c([C@@]3(C)N=C(N)O[C@@H]4CCC(F)(F)[C@@H]43)c2)cn1` [Example 1, 5-But-2-ynyloxy-pyrazine-2-carboxylic acid [3-((4S,4aR,7aR)-2-amino-5,5-difluoro-4-methyl-4,4a,5,6,7,7a-hexahydro-cyclopenta[e][1,3]oxazin-4-yl)-4-fluoro-phenyl]-amide], the hERG inhibition result on hERG channel was “A (A = less than 50% inhibition @ 1 μM)”. Also, in series [1], the IC50 came out at 97 µM.
Consider `C[C@]1(c2cc(NC(=O)c3ccc(C#N)cn3)ccc2F)N=C(N)O[C@@H]2CCC(F)(F)[C@@H]21` [Example 2, 5-Cyano-pyridine-2-carboxylic acid [3-((4S,4aR,7aR)-2-amino-5,5-difluoro-4-methyl-4,4a,5,6,7,7a-hexahydro-cyclopenta[e][1,3]oxazin-4-yl)-4-fluoro-phenyl]-amide], for which the “GSH human (glutathione adduct formation)” value in series [2] is reported as “NF”. Besides, at hERG channel, the hERG inhibition result is “A (A = less than 50% inhibition @ 1 μM)”. For the same compound, the IC50 in series [1] turned out to be 90 µM.
Take `C[C@]1(c2cc(NC(=O)c3ccc(C#N)cn3)ccc2F)N=C(N)O[C@@H]2CCCC(F)(F)[C@@H]21` [Example 8, 5-Cyano-pyridine-2-carboxylic acid [3-((4S,4aR,8aR)-2-amino-5,5-difluoro-4-methyl-4a,5,6,7,8,8a-hexahydro-4H-benzo[e][1,3]oxazin-4-yl)-4-fluoro-phenyl]-amide]: the “GSH human (glutathione adduct formation)” value in series [2] is reported as “NF”. Moreover, the hERG inhibition entry on hERG channel is reported as “A (A = less than 50% inhibition @ 1 μM)”. Further, in series [1], the IC50 was above 200 µM.
